Data: patent US20100016440A1, “ALPHA-AMINOAMIDE DERIVATIVES USEFUL AS ANTI-INFLAMMATORY AGENTS” (NEWRON PHARMACEUTICALS S.P.A., priority 2003, published 2010)

What was measured:
[1] = tested on: inflamed joint induced by carrageenan; conditions: cited from earlier work
[2] = tested on: paw edema induced by carrageenan; test: Paw edema carrageenan-induced inflammation; type: in vivo, rat; conditions: for volume of paw edema (mean Δml ± s.e. vs basal paw volume): 60' after carrageenan, po 1 h before carrageenan, male Wistar rats; for volume of paw edema (mean Δml ± s.e. vs basal paw volume) / reduction of edema vs. the control vehicle (inhibition): Compound A 30 mg/kg, indomethacin 5 mg/kg; for reduction of edema vs. the control vehicle (inhibition): 4 h after carrageenan injection, oral
Description: The anti-inflammatory activity of the α-aminoamide compounds of formula (I) have proven effective in a rat model of inflammation induced by carrageenan injection.
The potential anti-inflammatory effect of (S)-(+)-2-[4-(2-fluorobenzyloxy)-benzylamino]-propanamide (“compound A”) was investigated in the rat model of inflammatory acute pain induced by subplantar injection of carrageenan. Itraplantar injection of carrageenan elicit a time-dependent increase in paw volume.
Male Wistar rats of 175-200 grams were used. The left hind paw was injected with 100 μl of carrageenan (2% w/v in saline). Compound A (30 mg/kg), indomethacin (5 mg/kg), or control vehicle (such as distilled water) were orally administered 1 h before carrageenan injection. The paw volume was measured with a plethysmometer (Ugo Basile) immediately before (basal) and 1, 2, 3, 4 and 5 h after the carrageenan injection.

[3] = tested on: KCl-evoked SP release from spinal cord superfused synaptosomes; test: Substance P (SP) release from rat spinal cord synaptosomes; type: cell-based; conditions: KCl (35 mM) evoked, RIA, concentrations 0.1 to 30 μM, read-out: IC50 for reducing evoked SP release
Method: Male adult Sprague-Dawley rats were used. Following decapitation, the spinal cord was removed and homogenized in sucrose buffer 0.32 M pH 7.4. Samples were centrifuged at 12000 g for 20 minutes and the synaptosomal fraction was resuspended in physiological buffer. SP release from spinal cord superfused synaptosomes was induced by KCl (35 mM) and measured by RIA method (see Lee C M. et al. (1980) “The development and application of a novel N-terminal directed substance P antiserum”, Life Science 27 (7):535-543).

| Structure (SMILES) | mechanical hyperalgesia (in words) [1] | swelling and stiffness of the inflamed joint (in words) [1] | volume of paw edema (mean Δml ± s.e. vs basal paw volume) [2] | reduction of edema vs. the control vehicle (inhibition) [2] | paw edema formation (in words) ([2]; Compound A 30 mg/kg oral, 1-5 h after carrageenan) | IC50 [3] |
| --- | --- | --- | --- | --- | --- | --- |
| Cc1cccc(C)c1OCC(C)N (stereo not shown) [mexeletine] | able to reverse the mechanical hyperalgesia | without any effect | – | – | – | – |
| COc1ccc2c(c1)c(CC(=O)O)c(C)n2C(=O)c1ccc(Cl)cc1 [Indomethacin, indomethacin] | – | – | 0.29 ± 0.04 mL | about 50% | – | – |
| C[C@H](NCc1ccc(OCc2ccccc2F)cc1)C(N)=O [Compound A, (S)-(+)-2-[4-(2-fluorobenzyloxy)-benzylamino]-propanamide] | – | – | 0.19 ± 0.03 mL | 40% | prevented paw edema formation at all time points considered | 2120 nM |
| C[C@@H](CN1CC[C@@]2(C)c3cccc(O)c3C[C@@H]1C2(C)C)OCc1ccccc1 [crobenetine] | able to reverse the mechanical hyperalgesia | without any effect | – | – | – | – |
